Measurements as given in US20150315188A1, “COMPOUNDS AND METHODS FOR TREATMENT OF HYPERTENSION” (MEDIVATION TECHNOLOGIES, INC., priority 2012, published 2015).

Key:
Set-up in all cases: purchased Milipore (Millipore)
[1] = molecular target: T1, Human adrenergic α2A receptor (Homo sapiens, UniProt P08913); test: Radioligand binding, adrenergic α2A (Protocol Group B); details: Protocol Group B; for Percentage inhibition of ligand binding, Adrenergic α2A (0.1 μM): 0.1 μM compound
T1 sequence (P08913 1-465): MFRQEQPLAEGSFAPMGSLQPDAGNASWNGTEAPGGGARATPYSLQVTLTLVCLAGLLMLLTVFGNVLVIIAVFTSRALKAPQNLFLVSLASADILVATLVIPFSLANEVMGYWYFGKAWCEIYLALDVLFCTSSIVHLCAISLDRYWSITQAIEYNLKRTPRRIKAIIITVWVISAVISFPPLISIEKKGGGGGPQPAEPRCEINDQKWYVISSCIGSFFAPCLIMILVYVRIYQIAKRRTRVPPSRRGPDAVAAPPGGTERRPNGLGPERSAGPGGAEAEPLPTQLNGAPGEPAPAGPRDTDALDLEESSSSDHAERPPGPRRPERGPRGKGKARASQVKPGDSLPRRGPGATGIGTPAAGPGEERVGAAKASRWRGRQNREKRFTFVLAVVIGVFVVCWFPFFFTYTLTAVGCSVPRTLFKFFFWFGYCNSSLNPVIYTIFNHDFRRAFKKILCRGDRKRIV
In short: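 Membranes from recombinant cells expressing the receptor, in 50 mM Tris-HCl pH 7.4 with 5 mM MgCl2, 1 mM CaCl2, 0.2% BSA; compounds incubated with 2 nM [^3H]MK-912 for 60 min at 25° C. Nonspecific binding defined by 10 μM rauwolscine; filtration, counting; percent inhibition of specific binding, or estimated Ki.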

[2] = molecular target: T2, Human adrenergic α2B receptor (Homo sapiens, UniProt P18089); test: Radioligand binding, adrenergic α2B (Protocol Group B); details: Protocol Group B; for Percentage inhibition of ligand binding, Adrenergic α2B (10 nM): 10 nM compound, 0.01 µM; for Percentage inhibition of ligand binding, Adrenergic α2B (30 nM): 0.03 µM; for Percentage inhibition of ligand binding, Adrenergic α2B (0.1 μM) / inhibition at 0.1 µM: 0.1 μM compound; for inhibition at 0.1 µM: read-out: Percentage inhibition of ligand binding, Adrenergic α2B (0.1 μM)
T2 sequence (P18089 1-450): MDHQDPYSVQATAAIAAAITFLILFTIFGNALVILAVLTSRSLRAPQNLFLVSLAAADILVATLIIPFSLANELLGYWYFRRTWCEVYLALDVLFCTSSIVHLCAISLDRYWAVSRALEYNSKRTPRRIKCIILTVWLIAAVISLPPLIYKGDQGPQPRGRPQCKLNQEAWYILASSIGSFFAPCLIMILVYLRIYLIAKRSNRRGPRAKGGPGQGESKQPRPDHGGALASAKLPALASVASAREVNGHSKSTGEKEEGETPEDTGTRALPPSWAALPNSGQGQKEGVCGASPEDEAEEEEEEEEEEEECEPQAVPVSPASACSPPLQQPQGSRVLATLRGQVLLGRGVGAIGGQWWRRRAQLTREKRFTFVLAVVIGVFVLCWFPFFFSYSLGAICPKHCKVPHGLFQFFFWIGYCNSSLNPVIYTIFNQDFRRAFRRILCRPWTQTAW
In short: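 Recombinant human α2B receptor membranes incubated with compounds in 50 mM Tris-HCl pH 7.4, 5 mM MgCl2, 1 mM CaCl2, 0.2% BSA, 1% DMSO vehicle. Non-specific binding defined with 10 μM rauwolscine. Values are percent inhibition of specific binding or estimated Ki.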

[3] = molecular target: T3, Human adrenergic α1B receptor (Homo sapiens, UniProt P35368); test: Radioligand binding, adrenergic α1B (Protocol Group B); details: Protocol Group B; for Percentage inhibition of ligand binding, Adrenergic α1B (0.1 μM): 0.1 μM compound; for Percentage inhibition of ligand binding, Adrenergic α1B (0.3 μM): 0.3 μM compound
T3 sequence (P35368 1-520): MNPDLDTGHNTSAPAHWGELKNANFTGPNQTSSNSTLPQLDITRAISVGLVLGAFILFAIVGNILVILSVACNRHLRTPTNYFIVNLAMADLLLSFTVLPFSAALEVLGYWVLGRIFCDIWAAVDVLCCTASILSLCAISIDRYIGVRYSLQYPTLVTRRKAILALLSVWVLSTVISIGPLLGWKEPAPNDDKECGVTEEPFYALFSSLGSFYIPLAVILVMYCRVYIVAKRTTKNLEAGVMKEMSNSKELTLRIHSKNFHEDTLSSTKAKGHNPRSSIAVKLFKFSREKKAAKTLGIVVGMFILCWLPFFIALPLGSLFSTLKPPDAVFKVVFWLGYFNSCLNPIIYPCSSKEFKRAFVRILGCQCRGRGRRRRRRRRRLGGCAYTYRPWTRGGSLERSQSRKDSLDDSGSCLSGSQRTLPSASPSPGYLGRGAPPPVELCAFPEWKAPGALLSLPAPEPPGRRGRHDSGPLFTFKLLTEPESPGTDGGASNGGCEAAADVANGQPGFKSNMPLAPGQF
In short: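 Recombinant human α1B membranes incubated with test compound and 0.3 nM [3H]prazosin, 60 min at 25 °C, in 50 mM Tris-HCl pH 7.4, 10 mM MgCl2, 1 mM EDTA; nonspecific binding with 10 μM prazosin. Filter-bound radioactivity counted; values are % inhibition of specific binding or estimated Ki.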

SMILES	Percentage inhibition of ligand binding, Adrenergic α2A (0.1 μM) [1] [%]	Percentage inhibition of ligand binding, Adrenergic α2A (0.3 μM) ([1]; 0.3 μM compound) [%]	Percentage inhibition of ligand binding, Adrenergic α2B (10 nM) [2] [%]	Percentage inhibition of ligand binding, Adrenergic α2B (30 nM) ([2]; 30 nM compound) [%]	Percentage inhibition of ligand binding, Adrenergic α2B (0.1 μM) [2] [%]	Percentage inhibition of ligand binding, Adrenergic α1B (0.1 μM) [3] [%]	Percentage inhibition of ligand binding, Adrenergic α1B (0.3 μM) [3] [%]	inhibition at 0.03 µM ([2]; 30 nM compound, read-out: Percentage inhibition of ligand binding, Adrenergic α2B (30 nM)) [%]	inhibition at 0.1 µM [2] [%]	inhibition at 0.3 µM ([1]; 0.3 μM compound, read-out: Percentage inhibition of ligand binding, Adrenergic α2A (0.3 μM)) [%]
CC(O)(Cn1c2c(c3cc(Cl)cc(F)c31)C1CCCN1CC2)c1cccnc1 (single isomer, unassigned) [53d]	0	5	−3	−4	−5	−16	−8			
CN1CCc2c(c3cc(C(F)(F)F)ccc3n2CC(OC2CCCC2)c2ccncc2)C1 (single isomer, unassigned) [60a]	26	50	23			12	40	47	72	
CN1CCc2c(c3cc(C(F)(F)F)ccc3n2CC(OC2CCCC2)c2ccncc2)C1 (single isomer, unassigned) [60b]	3	12	6	28	59	−9	8			
Cc1cc(F)c2c(c1)c1c(n2CC(C)(O)c2cccnc2)CC2CCCN2C1 (single isomer, unassigned) [61a]	9	34	38	68	88	1	18			
Cc1cc(F)c2c(c1)c1c(n2CC(C)(O)c2cccnc2)CC2CCCN2C1 (single isomer, unassigned) [61b]	6	22	−8	3	28	−7	11			
Cc1cc(F)c2c(c1)c1c(n2CC(C)(O)c2cccnc2)CC2CCCN2C1 (single isomer, unassigned) [61d]	−10	−4	0	11	23	0	1			
Cc1cc(F)c2c(c1)c1c(n2CC(C)(O)c2ccncc2)CC2CCCN2C1 (single isomer, unassigned) [62a]	14		21	45		22	43		72	30
